Test results: PMC9389372 (RSC Advances, 2022)

Columns and labels:
Format in all cases: biochemical
[1] = molecular target: Human acetylcholinesterase (Homo sapiens, UniProt P22303); experiment: AChE inhibition, modified Ellman's spectrophotometric method; settings: for inhibition at 1000 µM: read-out: AChE % inhibition, 10^−3 M; for inhibition at 100 µM: read-out: AChE % inhibition, 10^−4 M
beta amyloid 1–42 (Aβ42) = beta amyloid 1–42 (Aβ42) (Homo sapiens, UniProt P05067); experiment: fluorometric beta amyloid 1–42; settings: for inhibition at 0.01 µM / inhibition at 0.1 µM / inhibition at 1 µM / inhibition at 10 µM: read-out: Percent inhibition of beta amyloid 1–42 (Aβ42) peptide aggregation
[2] = molecular target: human butyrylcholinesterase (Homo sapiens, UniProt P06276); experiment: BChE inhibition, modified Ellman's spectrophotometric method; settings: for inhibition at 100 µM / inhibition at 1000 µM: read-out: BChE % inhibition
MAO-B = molecular target: T1, MAO-B (Homo sapiens, UniProt P27338); experiment: MAO-B inhibition, in vitro fluorometric method; settings: for inhibition at 1000 µM: read-out: MAO-B % inhibition, 10^−3 M; for inhibition at 100 µM: read-out: MAO-B % inhibition, 10^−4 M
T1 sequence (P27338 1-520): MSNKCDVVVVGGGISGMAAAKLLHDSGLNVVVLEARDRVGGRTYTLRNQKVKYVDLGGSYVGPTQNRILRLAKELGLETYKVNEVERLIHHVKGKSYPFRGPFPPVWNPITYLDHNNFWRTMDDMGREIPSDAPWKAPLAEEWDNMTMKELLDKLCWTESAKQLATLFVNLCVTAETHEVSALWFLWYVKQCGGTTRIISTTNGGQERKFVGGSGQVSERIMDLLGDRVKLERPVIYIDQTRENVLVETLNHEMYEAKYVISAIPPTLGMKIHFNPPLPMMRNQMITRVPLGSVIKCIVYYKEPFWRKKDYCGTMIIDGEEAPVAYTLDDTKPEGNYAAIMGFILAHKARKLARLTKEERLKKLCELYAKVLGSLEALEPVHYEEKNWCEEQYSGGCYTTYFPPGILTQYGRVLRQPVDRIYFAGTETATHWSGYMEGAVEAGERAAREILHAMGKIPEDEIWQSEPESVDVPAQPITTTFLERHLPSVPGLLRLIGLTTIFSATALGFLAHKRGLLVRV

MAO-A = molecular target: T2, MAO-A (Homo sapiens, UniProt P21397); experiment: MAO-A inhibition, in vitro fluorometric method; settings: for inhibition at 100 µM / inhibition at 1000 µM: read-out: MAO-A % inhibition
T2 sequence (P21397 1-527): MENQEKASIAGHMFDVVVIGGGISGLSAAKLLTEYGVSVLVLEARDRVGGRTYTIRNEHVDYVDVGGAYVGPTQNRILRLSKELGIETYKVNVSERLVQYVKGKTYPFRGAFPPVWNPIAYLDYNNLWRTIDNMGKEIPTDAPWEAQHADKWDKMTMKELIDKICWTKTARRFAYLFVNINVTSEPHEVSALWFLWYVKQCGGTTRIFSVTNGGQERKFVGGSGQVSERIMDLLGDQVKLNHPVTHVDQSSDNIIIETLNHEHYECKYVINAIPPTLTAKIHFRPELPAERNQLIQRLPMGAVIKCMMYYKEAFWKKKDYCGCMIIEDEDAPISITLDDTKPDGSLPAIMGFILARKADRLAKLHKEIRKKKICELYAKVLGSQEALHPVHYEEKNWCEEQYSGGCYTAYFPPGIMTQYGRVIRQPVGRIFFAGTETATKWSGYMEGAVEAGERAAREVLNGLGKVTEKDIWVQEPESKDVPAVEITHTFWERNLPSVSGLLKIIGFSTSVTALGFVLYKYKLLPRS

Chain of human butyrylcholinesterase (P06276 29-602): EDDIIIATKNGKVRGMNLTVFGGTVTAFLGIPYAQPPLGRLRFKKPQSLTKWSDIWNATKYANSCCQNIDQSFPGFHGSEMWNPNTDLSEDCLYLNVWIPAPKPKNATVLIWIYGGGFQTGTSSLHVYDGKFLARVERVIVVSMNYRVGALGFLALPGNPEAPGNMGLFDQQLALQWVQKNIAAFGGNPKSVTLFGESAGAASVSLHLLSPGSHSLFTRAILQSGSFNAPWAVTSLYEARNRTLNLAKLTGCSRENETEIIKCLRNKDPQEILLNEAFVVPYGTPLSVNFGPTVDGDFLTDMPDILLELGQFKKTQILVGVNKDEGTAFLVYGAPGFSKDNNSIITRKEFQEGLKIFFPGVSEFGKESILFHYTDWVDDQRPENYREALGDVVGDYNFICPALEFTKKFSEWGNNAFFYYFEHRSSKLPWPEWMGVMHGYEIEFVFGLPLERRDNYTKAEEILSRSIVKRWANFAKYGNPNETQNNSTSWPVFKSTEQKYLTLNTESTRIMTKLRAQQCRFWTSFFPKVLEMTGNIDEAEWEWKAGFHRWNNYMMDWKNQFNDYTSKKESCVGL
Chain of Human acetylcholinesterase (P22303 32-614): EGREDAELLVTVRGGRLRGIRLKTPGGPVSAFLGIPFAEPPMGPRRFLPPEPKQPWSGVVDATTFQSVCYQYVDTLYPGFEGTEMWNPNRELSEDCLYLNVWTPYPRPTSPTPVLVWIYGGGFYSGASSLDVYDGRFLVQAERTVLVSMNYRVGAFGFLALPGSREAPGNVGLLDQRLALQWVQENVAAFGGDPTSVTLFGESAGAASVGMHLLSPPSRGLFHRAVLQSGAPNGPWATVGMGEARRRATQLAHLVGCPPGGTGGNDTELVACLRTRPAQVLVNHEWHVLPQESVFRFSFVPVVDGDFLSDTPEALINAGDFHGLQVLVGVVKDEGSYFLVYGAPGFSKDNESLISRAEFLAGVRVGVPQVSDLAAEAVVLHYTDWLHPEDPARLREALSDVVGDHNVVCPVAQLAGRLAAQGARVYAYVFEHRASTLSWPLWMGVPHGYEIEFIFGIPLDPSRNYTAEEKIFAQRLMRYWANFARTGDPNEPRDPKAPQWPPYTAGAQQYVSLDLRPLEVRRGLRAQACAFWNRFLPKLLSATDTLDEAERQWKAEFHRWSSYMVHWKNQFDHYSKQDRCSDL
Chain of beta amyloid 1–42 (Aβ42) (P05067 672-713): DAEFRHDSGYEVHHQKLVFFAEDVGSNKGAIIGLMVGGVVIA

| Structure (SMILES) | IC50 [1] [µM] | inhibition at 1000 µM [1] [%] | IC50 (beta amyloid 1–42 (Aβ42)) [µM] | inhibition at 0.01 µM (beta amyloid 1–42 (Aβ42)) [%] | inhibition at 0.1 µM (beta amyloid 1–42 (Aβ42)) [%] | inhibition at 1 µM (beta amyloid 1–42 (Aβ42)) [%] | inhibition at 10 µM (beta amyloid 1–42 (Aβ42)) [%] | IC50 [2] [µM] | inhibition at 100 µM [2] [%] | inhibition at 1000 µM [2] [%] | IC50 (MAO-B) [µM] | IC50 (MAO-A) [µM] | inhibition at 100 µM (MAO-A) [%] | inhibition at 1000 µM (MAO-A) [%] | inhibition at 100 µM [1] [%] | inhibition at 1000 µM (MAO-B) [%] | inhibition at 100 µM (MAO-B) [%] |
| --- | --- | --- | --- | --- | --- | --- | --- | --- | --- | --- | --- | --- | --- | --- | --- | --- | --- |
| CN1CCN(Cc2ccc(C(=O)Nc3nc4ccccc4s3)cc2)CC1 [4a, N-(Benzo[d]thiazol-2-yl)-4-((4-methylpiperazine-1-yl)methyl)benzamide] | 0.0563 ± 0.0025 | 93.3 ± 1.4 | 0.256 ± 0.011 | 47.4 ± 1.1 | 70.4 ± 2.8 | 86.4 ± 2.7 | 91.9 ± 3.1 | > 1000 | 26.5 ± 0.8 | 38.6 ± 0.7 | 0.0674 ± 0.0031 | > 100 | 38.6 ± 0.7 | 55.3 ± 0.9 |  |  |  |
| CCN1CCN(Cc2ccc(C(=O)Nc3nc4ccccc4s3)cc2)CC1 [4b, N-(Benzo[d]thiazol-2-yl)-4-((4-ethylpiperazine-1-yl)methyl)benzamide] | > 100 | 85.6 ± 1.3 |  |  |  |  |  | > 1000 | 24.4 ± 0.6 | 35.7 ± 0.9 | > 100 | > 1000 | 36.4 ± 0.8 | 46.5 ± 0.8 | 47.6 ± 0.8 | 73.3 ± 1.2 | 42.3 ± 0.8 |
| C=CCN1CCN(Cc2ccc(C(=O)Nc3nc4ccccc4s3)cc2)CC1 [4c, 4-((4-Allylpiperazine-1-yl)methyl)-N-(benzo[d]thiazol-2-yl)benzamide] | > 100 | 82.8 ± 1.5 |  |  |  |  |  | > 1000 | 20.2 ± 0.7 | 30.9 ± 0.7 | > 100 | > 1000 | 34.6 ± 0.8 | 48.3 ± 0.9 | 48.2 ± 0.9 | 69.6 ± 1.2 | 40.3 ± 0.9 |
| C#CCN1CCN(Cc2ccc(C(=O)Nc3nc4ccccc4s3)cc2)CC1 [4d, N-(Benzo[d]thiazol-2-yl)-4-((4-(prop-2-yn-1-yl)piperazine-1-yl)methyl)benzamide] | 0.0896 ± 0.0032 | 91.6 ± 1.3 | 0.242 ± 0.0097 | 36.2 ± 1 | 55.2 ± 1.4 | 81.5 ± 2.5 | 89.8 ± 3 | > 1000 | 28.4 ± 0.9 | 37.1 ± 0.8 | 0.11 ± 0.0043 | > 100 | 39.7 ± 0.9 | 57.6 ± 0.9 |  |  |  |
| CC(C)N1CCN(Cc2ccc(C(=O)Nc3nc4ccccc4s3)cc2)CC1 [4e, N-(Benzo[d]thiazol-2-yl)-4-((4-isopropylpiperazine-1-yl)methyl)benzamide] | > 100 | 83.9 ± 1.7 |  |  |  |  |  | > 1000 | 26.8 ± 0.7 | 39.1 ± 0.8 | > 100 | > 1000 | 33.8 ± 0.7 | 44.7 ± 0.9 | 46.9 ± 0.8 | 72.7 ± 1.1 | 44.6 ± 0.8 |
| CN(C)CCCN1CCN(Cc2ccc(C(=O)Nc3nc4ccccc4s3)cc2)CC1 [4g, N-(Benzo[d]thiazol-2-yl)-4-((4-(3-(dimethylamino)propyl)piperazine-1-yl)methyl)benzamide] | 0.0367 ± 0.0014 | 94.3 ± 1 |  |  |  |  |  | > 1000 | 30.9 ± 0.8 | 41.5 ± 0.8 | > 100 | > 100 | 40.1 ± 0.9 | 64.9 ± 1.1 |  | 74.2 ± 1 | 42.5 ± 0.9 |
| COc1ccc2sc(NC(=O)c3ccc(CN4CCN(C)CC4)cc3)nc2c1 [4h, N-(5-Methoxybenzo[d]thiazol-2-yl)-4-((4-methylpiperazine-1-yl)methyl)benzamide] | 0.0649 ± 0.0029 | 92.3 ± 1.1 | 0.296 ± 0.013 | 41.8 ± 1 | 64.8 ± 1.9 | 83.2 ± 3.3 | 90.7 ± 2.9 | > 1000 | 27 ± 0.7 | 33.5 ± 0.8 | 0.0851 ± 0.0038 | > 100 | 38.5 ± 0.6 | 60.5 ± 0.9 |  |  |  |
